The values below come from US20080063601A1, “Compositions and methods relating to polycystic kidney disease” (priority 2004, published 2008).

Where two headings read alike, the source gives them in different places.

Common to all, as to format: cell-based
Assay [1] has as its system Pkd1^−/− murine kidney epithelial cells. Nature of the assay: Growth, p21 and active caspase-3 in Pkd1−/− kidney epithelial cells. As to conditions: 100 nM. As for the experimental part:
Total cell lysates (0.5% Triton X-100, 50 mM Tris pH 7.4, 150 mM NaCl, […]) were prepared for Western blot analysis and samples were run out by SDS-PAGE as per manufacturers' protocols. Brightfield images of cells were taken using a 10× or 40× objective. Confocal microscopy (40×) was used for immunofluorescence imaging of polycystin-2.
Calcium response to triptolide was, thus, shown to be dependent on polycystin-2. The biological response to calcium flux was next assessed in the murine Pkd1^−/− cell line, by adding 100 nM triptolide to the cultured cells and observing cell growth over time. Within the first 24 hours of culture, a minimal number of detached cells was observed. […] In the absence of triptolide, this cell line underwent a population doubling every 48 hours. […] It is possible that additional signaling pathways are activated by triptolide when Pkd1 is expressed. […] Therefore, Applicant assessed whether the inhibition of proliferation observed was due to p21 re-expression upon triptolide treatment.

In assay [2] the test system is NFκB transactivation. Nature of the assay: κB-luciferase reporter assay of TNF-α induced NFκB transactivation in HeLa cells. As to conditions: for inhibition at 0.1 µM: Homo sapiens. As to the method: Having established that triptolide induced cell death is dependent upon free calcium concentration, Applicant next determined whether this was also a requirement for the inhibition of NFκB transcription. HeLa cells were transiently transfected with the κB-luciferase reporter construct for 8 hours before being washed and then cultured in the presence or absence of calcium containing medium for 16 hours. Triptolide (100 nM) was pre-incubated with cells for 1 hour before addition of 15 ng/ml of TNF-α for 4 hours.
As an additional experiment, transcriptional activity was also assessed by site-directed calcium buffering. HeLa cells were co-transfected with the κB-luciferase plasmid as well as one of the following constructs: GFP empty vector, NES-PV-GFP, or NLS-PV-GFP and proper GFP localization was confirmed. […]
NFκB transactivation was examined using the κB-luciferase reporter construct. […] Cells were assessed for NFκB driven luciferase expression after an additional five hours of incubation, at which time TNF-α had induced transcriptional activity by approximately 15-fold in control cells. […] The results thus far support a divergence of triptolide-mediated functions: the pathway regulating growth arrest/death is more sensitive to triptolide and calcium than the mechanism leading to transcriptional repression of NFκB.
A triple κB promoter-Luciferase reporter construct was a gift of Sankar Ghosh (Yale University). […] The transfection efficiency of HeLa was determined to be 80-90%, and all samples were normalized to protein concentration. Luciferase assays were performed using the Firefly luciferase kit as per manufacturer's protocol (Promega) and results obtained on the Wallac Victor2 1420 Multilabel Counter (Perkin Elmer).
(In a reporter assay the amount or activity of a reporter protein is the signal.)

Assay [3] concerns HeLa cells. Put plainly: HeLa cell viability by trypan blue dye exclusion. As for the experimental part: Since extracellular calcium concentration can influence triptolide binding Applicant sought to determine if the presence of calcium influences the rate of triptolide-mediated apoptosis. To first establish the growth rate of HeLa in media±calcium, cell counts were performed over a 72 hour time course. Although calcium-free media caused cells to detach more easily, the overall growth rates were similar where cell doubling occurred every 24 hours on average (FIG. 5B). For triptolide experiments, cells were initially equilibrated in medium±calcium for 16 hours before the addition of 100 nM triptolide. Cell death was assessed by trypan blue dye exclusion at 24, 48, and 72 hours post drug treatment. In the presence of calcium-containing medium, triptolide induced at least 50% cell death by 24 hours with this trend continuing through later time points (FIG. 5C).
Applicant's results have implicated reversible binding of triptolide to a potential binding protein or complex that can be regulated by calcium. To understand if triptolide function is further separable between cell death and NFκB inhibition, Applicant examined the effect of concentration on these two endpoints. HeLa cells were cultured in the presence of 0, 10, 25, 50, or 100 nM of triptolide and separately assessed for cell death or the ability to suppress NFκB transactivation promoted by TNF-α. Following 24-48 hours of culture, viable cells were recovered and counted. Following 24 hours, triptolide concentrations from 25-100 nM caused greater than 50% of the cells to undergo cell death as assessed by detachment, clumping and the failure to exclude trypan blue dye. […] This is consistent with previous studies showing that low doses of triptolide cause cell cycle arrest rather than apoptosis (Kiviharju, et al., 2002, Clin Cancer Res 8, 2666-2674).
Based upon Applicant's studies examining the concentration dependent effect of triptolide on the two measured biological endpoints, cell death and transcriptional repression, Applicant wanted to determine how modulating triptolide's structure may also discriminate between the two pathways. For cell viability assays, HeLa cells were incubated with 0, 0.1, 1, or 10 μM of each analog or triptolide for 24 hours and then counted using trypan blue dye exclusion. […] NFκB transcriptional inhibition was measured using the κB-luciferase assay as previously described following 5 hours of incubation with each analog (0-10 μM) and TNF-α addition.
HeLa cells were incubated in DMEM or SMEM (Gibco) media+10% FBS and maintained at 37° C. in 5% CO2 for all experiments. HeLa cell viability was assessed by trypan blue dye exclusion, as well as by morphological examination (non-viable cells were rounded and detached from culture plate).

As usually defined, the inhibition is the relative decrease from the control value, in per cent. For `CC(C)[C@]12O[C@H]1[C@@H]1O[C@]13[C@]1(O[C@H]1C[C@H]1C4=C(CC[C@@]13C)C(=O)OC4)[C@@H]2O` [triptolide], the “active caspase-3 (western blot)” value in assay [1] was “failed to implicate triptolide induced apoptosis”. In assay [1] (96 hour time course), the “p21 expression (western blot)” value is recorded as “upregulated”. In assay [1] (over 96 hours), the cell growth entry is “growth arrested”. Further, the “inhibition of TNF-α driven transcriptional activity of NFκB” value in assay [2] (10 nM, 1 h pre-treatment + 5 h TNF-α) is “did not inhibit”; in assay [2] (25 nM, 1 h pre-treatment + 5 h TNF-α), “did not inhibit”. In addition, the “luciferase induction remaining with compound + TNF-α” value in assay [2] (10 nM, after 24 hours) is over 20 fold. Besides, the “suppression of TNF-α driven NFκB activity” value in assay [2] (50 nM, 1 h pre-treatment + 5 h TNF-α) came to 20%. In addition, the “suppression of NFκB transactivation with site-directed calcium buffering” value in assay [2] (100 nM, GFP vector, NES-PV-GFP or NLS-PV-GFP) is reported as “retained the ability to suppress NFκB transactivation”. Also, the “inhibition of TNF-α induced NFκB transactivation” value in assay [2] (100 nM, presence and absence of calcium) is reported as “effectively inhibited”. Also, in assay [2] (1 or 10 μM, 5 hours with TNF-α), the “NFκB activity at higher concentration” value is “attenuated further”. For the same compound, the inhibition at 0.1 µM is over 60% in assay [2] (0.1 μM, 5 hours with TNF-α, read-out: NFκB inhibition) and 60% in assay [2] (100 nM, 1 h pre-treatment + 5 h TNF-α, read-out: inhibition of TNF-α driven NFκB activity (average)). Besides, in assay [3], the “minimal incubation time required for commitment to apoptosis” value was “three to four hours”. Besides, in assay [3] (10 nM, 48 hours), the “effect on cell proliferation and cell death” value is on record as “inhibited cell proliferation but did not induce cell death”. Further, the cell death in assay [3] (0.1 μM, 24 hours) was 60%; in assay [3] (0.1 μM, 24 hours, listed as Triptolide) it was “greater than 50%”; in assay [3] (100 nM, calcium-containing medium, by 24 hours) it was “at least 50%”. In addition, the cells died in assay [3] (100 nM, calcium free media, 72 hours) is given as 35%; in assay [3] (25-100 nM, 48 hours), “nearly all cells”. Besides, the “cells undergoing cell death” value in assay [3] (25-100 nM, 24 hours) is reported as “greater than 50%”.
